Experimental data reported in article PMC7655512 (Cell stem cell, 2020).

Tests used:
[1] = test system: LQT3 SCN5A N406K hiPSC-CMs; assay: Optical voltage assay, second genetic LQT3 model; format: cell-based, human; settings: result in words
[2] = test system: HD.113 hiPSC-CMs treated with ATX-II; assay: High dose ATX-II induced arrhythmia in healthy donor hiPSC-CMs; format: cell-based, human; settings: ATX-II 1 μM; result in words
[3] = test system: genetic and pharmacological LQT3 hiPSC-CM models; assay: Optical voltage assay across genetic and pharmacological LQT3 hiPSC-CM models; format: cell-based, human; settings: for general APD effect at low or high doses: summary over all models, result in words
SCN5A L409P/R588 mutant = SCN5A L409P/R588 mutant (Homo sapiens, UniProt Q14524, H558R/L409P); assay: Automated planar patch clamp of LQT3 mutant channel in HEK293T cells; format: cell-based; settings: for preference of block between INaP and INaL: result in words
HD.CDI hiPSC-CMs = assay: High throughput optical action potential recording, healthy donor hiPSC-CMs; settings: result in words

Sequence of SCN5A L409P/R588 mutant (Q14524 whole entry L409P/H558R): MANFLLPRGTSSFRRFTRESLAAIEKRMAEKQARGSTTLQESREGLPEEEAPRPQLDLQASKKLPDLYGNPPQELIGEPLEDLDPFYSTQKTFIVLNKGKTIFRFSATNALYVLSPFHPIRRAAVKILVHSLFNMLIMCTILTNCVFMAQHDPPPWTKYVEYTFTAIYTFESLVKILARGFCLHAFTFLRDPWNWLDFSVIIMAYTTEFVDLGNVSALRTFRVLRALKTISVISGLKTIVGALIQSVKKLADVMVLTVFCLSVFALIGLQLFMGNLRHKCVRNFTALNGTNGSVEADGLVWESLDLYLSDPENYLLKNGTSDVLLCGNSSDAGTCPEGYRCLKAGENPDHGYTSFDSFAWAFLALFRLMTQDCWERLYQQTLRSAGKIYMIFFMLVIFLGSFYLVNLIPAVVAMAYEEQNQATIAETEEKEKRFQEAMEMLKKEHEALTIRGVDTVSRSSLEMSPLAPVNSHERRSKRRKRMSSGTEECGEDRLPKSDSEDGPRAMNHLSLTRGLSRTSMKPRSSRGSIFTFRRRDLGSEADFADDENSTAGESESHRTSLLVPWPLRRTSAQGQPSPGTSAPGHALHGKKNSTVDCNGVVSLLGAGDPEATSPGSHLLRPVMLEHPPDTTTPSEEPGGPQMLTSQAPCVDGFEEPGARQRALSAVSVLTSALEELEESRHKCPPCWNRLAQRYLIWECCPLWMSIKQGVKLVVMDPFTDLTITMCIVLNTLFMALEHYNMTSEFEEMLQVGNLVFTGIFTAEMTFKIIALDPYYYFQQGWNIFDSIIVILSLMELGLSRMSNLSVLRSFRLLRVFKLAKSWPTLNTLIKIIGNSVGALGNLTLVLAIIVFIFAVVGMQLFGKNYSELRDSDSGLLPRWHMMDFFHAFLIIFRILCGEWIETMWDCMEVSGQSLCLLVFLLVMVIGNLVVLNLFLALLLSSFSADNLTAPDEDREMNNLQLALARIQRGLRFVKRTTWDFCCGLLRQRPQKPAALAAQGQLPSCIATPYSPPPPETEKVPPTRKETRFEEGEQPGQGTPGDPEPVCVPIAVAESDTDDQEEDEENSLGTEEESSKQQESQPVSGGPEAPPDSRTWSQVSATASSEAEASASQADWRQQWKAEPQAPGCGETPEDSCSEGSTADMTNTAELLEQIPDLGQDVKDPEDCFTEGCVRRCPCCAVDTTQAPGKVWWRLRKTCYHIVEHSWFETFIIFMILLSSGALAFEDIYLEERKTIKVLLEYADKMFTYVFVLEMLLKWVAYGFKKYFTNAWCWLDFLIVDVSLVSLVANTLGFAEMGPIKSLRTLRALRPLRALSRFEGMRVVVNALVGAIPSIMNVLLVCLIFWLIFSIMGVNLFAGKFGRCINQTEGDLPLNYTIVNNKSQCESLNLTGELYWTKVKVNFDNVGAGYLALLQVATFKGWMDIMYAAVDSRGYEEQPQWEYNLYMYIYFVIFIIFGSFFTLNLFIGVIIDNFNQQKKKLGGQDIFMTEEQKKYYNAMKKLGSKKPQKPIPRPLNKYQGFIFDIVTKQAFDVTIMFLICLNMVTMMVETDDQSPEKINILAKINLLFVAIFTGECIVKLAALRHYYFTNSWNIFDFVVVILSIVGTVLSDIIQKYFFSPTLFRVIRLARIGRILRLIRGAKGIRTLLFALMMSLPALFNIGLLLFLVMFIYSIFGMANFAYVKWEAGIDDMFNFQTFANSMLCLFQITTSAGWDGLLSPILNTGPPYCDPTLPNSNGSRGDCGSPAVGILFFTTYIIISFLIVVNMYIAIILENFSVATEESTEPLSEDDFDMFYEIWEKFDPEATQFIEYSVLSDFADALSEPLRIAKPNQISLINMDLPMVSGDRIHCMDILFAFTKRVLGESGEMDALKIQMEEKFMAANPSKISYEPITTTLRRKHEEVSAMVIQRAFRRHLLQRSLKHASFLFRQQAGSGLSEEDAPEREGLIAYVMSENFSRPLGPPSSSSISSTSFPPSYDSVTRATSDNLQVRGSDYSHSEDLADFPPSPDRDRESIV

## FC(F)(F)Oc1ccc(-c2ccc3nnc(C(F)(F)F)n3c2)cc1 [GS-967]
[1]
  suppression of spontaneous arrhythmia: effective
[2]
  suppression of ATX-II induced arrhythmia: effective
[3]
  general APD effect at low or high doses: most pronounced shortening at low doses

## Cc1ccccc1OCC(N)c1ccccc1 (stereo not shown) [MexA2, 1-Phenyl-2-(o-tolyloxy)ethan-1-amine]
SCN5A L409P/R588 mutant
  preference of block between INaP and INaL: preferentially blocked INaP over INaL

## Cc1cc(C)cc(OCC(N)c2ccccc2)c1 (stereo not shown) [MexA3]
SCN5A L409P/R588 mutant
  block of INaL: did not block INaL
  preference of block between INaP and INaL: preferentially blocked INaP over INaL

## NC(COc1ccccc1C(F)(F)F)c1ccccc1 (stereo not shown) [MexA4, 1-Phenyl-2-(2-(trifluoromethyl)phenoxy)ethan-1-amine]
HD.CDI hiPSC-CMs
  proarrhythmic response (APD prolongation, EADs): not proarrhythmic

## COCCNC(COc1cccc(C)c1C)c1ccccc1 (stereo not shown) [MexA5, 2-(2,3-dimethylphenoxy)-N-(2-methoxyethyl)-1-phenylethan-1-amine]
[1]
  suppression of spontaneous arrhythmia: terminated spontaneous arrhythmias
HD.CDI hiPSC-CMs; high concentrations
  asystole effect, change with N-ethyl methoxy substitution: decreased this effect
[3]
  general APD effect at low or high doses: most pronounced shortening at low doses

## Cc1cccc(C)c1OCC(C)N (stereo not shown) [mexiletine, Mexiletine]
[1]
  APD change: weakly
HD.CDI hiPSC-CMs
  proarrhythmic response (APD prolongation, EADs): proarrhythmic response
[3]
  APD change across LQT3 hiPSC-CM models: substantially prolonged the AP in all hiPSC-CMs examined
  APD shortening in pharmacological LQT3 models: not in all the pharmacological models
  general APD effect at low or high doses: prolonged the APD at high doses

## COc1ccccc1OCC(O)CN1CCN(CC(=O)Nc2c(C)cccc2C)CC1 (stereo not shown) [ranolazine]
[1]
  APD change: did not shorten APD and induced EADs at high doses
  suppression of spontaneous arrhythmia: blocked arrhythmia only in the genetic LQT3 model
[2]
  suppression of ATX-II induced arrhythmia: blocked arrhythmia only in the genetic LQT3 model
[3]
  general APD effect at low or high doses: prolonged the APD at high doses
